Experimental data taken from patent publication US8063071B2 (GlaxoSmithKline, LLC, priority 2007, dated 2011).
Structures can show the parent of a compound that is named as a salt.

Key:
[1] = system: human monocyte stimulated cytokine production (TNF-α); assay: Monocyte assay (LPS-stimulated TNF-α production); assay type: cell-based; conditions: for IC50: 24 h, 200 ng/mL LPS, TNF-α by ELISA; for inhibition at 0.3 µM: read-out: inhibition at 300 nM in the monocyte assay
Procedure: Effect of IKK-β inhibition on human monocyte stimulated cytokine production was assessed as follows: Monocytes were isolated from heparinized whole blood by Ficoll gradient, followed by purification of CD14+ cells using MACS magnetic cell separation beads. Isolated monocytes were then adhered to 96-well culture plates at 1×10^6 cells/mL in RPMI 1640 10% FBS (JRH Biosciences, Lenexa Kans.) for 2 h. Test compounds are added to the wells 30 minutes prior to stimulation with a final vehicle concentration of 0.1% DMSO. Monocytes were activated by the addition of 200 ng/mL endotoxin (LPS; E. coli serotype 026:B6)(Sigma, St. Louis, Mo.) and incubated for 24 hrs at 37 C. Cell-free supernates were analyzed by ELISA for TNF-α using Pharmingen matched pair Abs. Viability of the cells was determined by 10% trypan blue exclusion.

[2] = biological target: T1, Recombinant human IKKβ (residues 1-737) (Homo sapiens, UniProt O14920); assay: IKK2 assay (TR-FRET); assay type: biochemical; conditions: ATP 1 μM final, read-out: pIC50 against IKK2 (converted)
T1 construct: Recombinant human IKKβ (residues 1-737); GST (C); made in house
T1 sequence (O14920 1-737): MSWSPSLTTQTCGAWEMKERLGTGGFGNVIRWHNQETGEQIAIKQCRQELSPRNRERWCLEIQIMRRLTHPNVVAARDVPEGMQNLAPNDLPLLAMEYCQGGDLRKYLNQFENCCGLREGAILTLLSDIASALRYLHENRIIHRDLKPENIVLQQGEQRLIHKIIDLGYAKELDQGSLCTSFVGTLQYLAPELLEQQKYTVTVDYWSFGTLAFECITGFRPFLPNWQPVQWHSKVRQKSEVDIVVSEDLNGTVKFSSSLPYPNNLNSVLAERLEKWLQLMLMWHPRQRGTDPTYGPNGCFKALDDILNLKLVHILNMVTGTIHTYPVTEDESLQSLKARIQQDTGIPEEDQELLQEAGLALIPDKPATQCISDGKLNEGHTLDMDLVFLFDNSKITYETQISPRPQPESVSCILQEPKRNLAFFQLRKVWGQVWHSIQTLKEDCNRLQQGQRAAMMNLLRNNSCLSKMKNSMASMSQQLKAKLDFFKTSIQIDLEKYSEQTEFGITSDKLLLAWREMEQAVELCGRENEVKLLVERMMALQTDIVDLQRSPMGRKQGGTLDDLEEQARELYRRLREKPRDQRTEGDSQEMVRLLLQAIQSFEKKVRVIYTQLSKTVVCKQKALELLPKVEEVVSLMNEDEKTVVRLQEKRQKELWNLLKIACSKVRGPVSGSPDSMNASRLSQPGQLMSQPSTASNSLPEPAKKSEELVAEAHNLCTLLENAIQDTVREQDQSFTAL
Procedure: Recombinant human IKKβ (residues 1-737) was expressed in baculovirus as a C-terminal GST-tagged fusion protein, and its activity was assessed using a time-resolved fluorescence resonance energy transfer (TR-FRET) assay. Briefly, IKK2 (0.5 nM-5 nM final) diluted in assay buffer (50 mM HEPES, 10 mM MgCl2, 1 mM CHAPS pH 7.4 with 1 mM DTT and 0.01% w/v BSA) was added to wells containing various concentrations of compound or DMSO vehicle (1.7% final). The reaction was initiated by the addition of GST-IB substrate (25 nM final)/ATP (1 μM final), in a total volume of 6 μl. The reaction was incubated for 15 minutes at room temperature, then terminated by the addition of 3 μl of detection reagent in buffer containing 50 mM EDTA (100 mM HEPES pH 7.4, 150 mM NaCl, 50 mM EDTA and 0.01% w/v BSA) containing antiphosphoserine-IB-32/36 monoclonal antibody 12C2 (Cell Signalling Technology, Beverly Mass., USA) labelled with W-1024 europium chelate (Wallac OY, Turku, Finland), and an APC-labelled anti-GST antibody (Prozyme, San Leandro, Calif., USA) was added and the reaction was further incubated for 60 minutes at room temperature. The degree of phosphorylation of GST-IB was measured using a BMG Rubystar plate reader (BMG Labtech, Aylesbury, UK) as a ratio of specific 665 nm energy transfer signal to reference europium 620 nm signal.

SMILES | IC50 [2] | further results
CCS(=O)(=O)N1CCC(c2c[nH]c3c(C(N)=O)cc(-c4ccc5c(c4)C(NCC(C)C)CCC5)cc23)CC1 (stereo not drawn) [Example 34, 3-[1-(ethylsulfonyl)-4-piperidinyl]-5-{8-[(2-methylpropyl)amino]-5,6,7,8-tetrahydro-2-naphthalenyl}-1H-indole-7-carboxamide trifluoroacetate] | – | IC50 [1]: > 1 µM
CCS(=O)(=O)N1CCC(c2c[nH]c3c(C(N)=O)cc(-c4cc(CNC(C)C)c5c(c4)OCC5)cc23)CC1 [Example 59, 3-[1-(ethylsulfonyl)-4-piperidinyl]-5-(4-{[(1-methylethyl)amino]methyl}-2,3-dihydro-1-benzofuran-6-yl)-1H-indole-7-carboxamide] | – | inhibition at 0.3 µM [1]: 0 to 60%
CCS(=O)(=O)N1CCC(c2c[nH]c3c(C(N)=O)cc(-c4csc(CN5CCCC5CC(C)C)c4)cc23)CC1 (stereo not drawn) [Example 97, 3-[1-(ethylsulfonyl)-4-piperidinyl]-5-(5-{[2-(2-methylpropyl)-1-pyrrolidinyl]methyl}-3-thienyl)-1H-indole-7-carboxamide] | – | inhibition at 0.3 µM [1]: 0 to 60%
CCS(=O)(=O)N1CCC(c2c[nH]c3c(C(N)=O)cc(-c4csc(CNCC(C)(C)C)c4)cc23)CC1 [Example 117, 5-(5-{[(2,2-dimethylpropyl)amino]methyl}-3-thienyl)-3-[1-(ethylsulfonyl)-4-piperidinyl]-1H-indole-7-carboxamide trifluoroacetate] | – | IC50 [1]: ≤ 1.5 µM
CCS(=O)(=O)N1CCC(c2c[nH]c3c(C(N)=O)cc(-c4cccc(-n5cccn5)c4)cc23)CC1 [Example 164, 3-[1-(ethylsulfonyl)-4-piperidinyl]-5-[3-(1H-pyrazol-1-yl)phenyl]-1H-indole-7-carboxamide] | – | IC50 [1]: ≤ 1.5 µM
CCS(=O)(=O)N1CCC(c2c[nH]c3c(C(N)=O)cc(-c4cncc(CNCC5CC5)c4)cc23)CC1 [Example 173, 5-(5-{[(cyclopropylmethyl)amino]methyl}-3-pyridinyl)-3-[1-(ethylsulfonyl)-4-piperidinyl]-1H-indole-7-carboxamide] | – | inhibition at 0.3 µM [1]: 0 to 60%
CCCOCCCNCc1ccc(-c2cc(C(N)=O)c3[nH]cc(C4CCN(S(=O)(=O)CC)CC4)c3c2)s1 [Example 198, 3-[1-(ethylsulfonyl)-4-piperidinyl]-5-[5-({[3-(propyloxy)propyl]amino}methyl)-2-thienyl]-1H-indole-7-carboxamide] | – | inhibition at 0.3 µM [1]: 0 to 60%
CCS(=O)(=O)N1CCC(c2c[nH]c3c(C(N)=O)cc(-c4csc(CN5CCCC5COC)c4)cc23)CC1 (stereo not drawn) [Example 405, 3-[1-(ethylsulfonyl)-4-piperidinyl]-5-[5-({2-[(methyloxy)methyl]-1-pyrrolidinyl}methyl)-3-thienyl]-1H-indole-7-carboxamide trifluoroacetate] | ≤ 10 µM | –
CCS(=O)(=O)N1CCC(c2c[nH]c3c(C(N)=O)cc(-c4csc(CN5CCCC(C(F)(F)F)C5)c4)cc23)CC1 (stereo not drawn) [Example 407, 3-[1-(ethylsulfonyl)-4-piperidinyl]-5-(5-{[3-(trifluoromethyl)-1-piperidinyl]methyl}-3-thienyl)-1H-indole-7-carboxamide trifluoroacetate] | ≤ 10 µM | –
CCS(=O)(=O)N1CCC(c2c[nH]c3c(C(N)=O)cc(-c4csc(CN(C)CCNC(C)=O)c4)cc23)CC1 [Example 410, 5-(5-{[[2-(acetylamino)ethyl](methyl)amino]methyl}-3-thienyl)-3-[1-(ethylsulfonyl)-4-piperidinyl]-1H-indole-7-carboxamide trifluoroacetate] | ≤ 10 µM | –
CCS(=O)(=O)N1CCC(c2c[nH]c3c(C(N)=O)cc(-c4csc(CN(C)[C@@H]5CCC[C@H]5O)c4)cc23)CC1 [Example 411, 3-[1-(ethylsulfonyl)-4-piperidinyl]-5-(5-{[[(1R,2R)-2-hydroxycyclopentyl](methyl)amino]methyl}-3-thienyl)-1H-indole-7-carboxamide trifluoroacetate] | ≤ 10 µM | –
CCS(=O)(=O)N1CCC(c2c[nH]c3c(C(N)=O)cc(-c4csc(CN(C)C[C@H](C)O)c4)cc23)CC1 [Example 413, 3-[1-(ethylsulfonyl)-4-piperidinyl]-5-(5-{[[(2S)-2-hydroxypropyl](methyl)amino]methyl}-3-thienyl)-1H-indole-7-carboxamide trifluoroacetate] | ≤ 10 µM | –
CCS(=O)(=O)N1CCC(c2c[nH]c3c(C(N)=O)cc(-c4csc(CN(C)C[C@H]5CCCO5)c4)cc23)CC1 [Example 414, 3-[1-(ethylsulfonyl)-4-piperidinyl]-5-[5-({methyl[(2R)-tetrahydro-2-furanylmethyl]amino}methyl)-3-thienyl]-1H-indole-7-carboxamide trifluoroacetate] | ≤ 10 µM | –
CCS(=O)(=O)N1CCC(c2c[nH]c3c(C(N)=O)cc(-c4csc(CN(C)CCOCCO)c4)cc23)CC1 [Example 415, 3-[1-(ethylsulfonyl)-4-piperidinyl]-5-(5-{[{2-[(2-hydroxyethyl)oxy]ethyl}(methyl)amino]methyl}-3-thienyl)-1H-indole-7-carboxamide trifluoroacetate] | ≤ 10 µM | –

Continued, in another order:

IC50 [2] | SMILES | further results
≤ 10 µM | CCS(=O)(=O)N1CCC(c2c[nH]c3c(C(N)=O)cc(-c4ccc5c(c4)CN(C(C)C(C)C)C5)cc23)CC1 (stereo not drawn) [Example 421, 5-[2-(1,2-dimethylpropyl)-2,3-dihydro-1H-isoindol-5-yl]-3-[1-(ethylsulfonyl)-4-piperidinyl]-1H-indole-7-carboxamide] | –
≤ 10 µM | CCC(C)N1Cc2ccc(-c3cc(C(N)=O)c4[nH]cc(C5CCN(S(=O)(=O)CC)CC5)c4c3)cc2C1 (stereo not drawn) [Example 422, 3-[1-(ethylsulfonyl)-4-piperidinyl]-5-[2-(1-methylpropyl)-2,3-dihydro-1H-isoindol-5-yl]-1H-indole-7-carboxamide] | –
≤ 10 µM | CCC(CC)N1Cc2ccc(-c3cc(C(N)=O)c4[nH]cc(C5CCN(S(=O)(=O)CC)CC5)c4c3)cc2C1 [Example 423, 5-[2-(1-ethylpropyl)-2,3-dihydro-1H-isoindol-5-yl]-3-[1-(ethylsulfonyl)-4-piperidinyl]-1H-indole-7-carboxamide] | –
≤ 10 µM | CCS(=O)(=O)N1CCC(c2c[nH]c3c(C(N)=O)cc(-c4ccc5c(c4)CN(C4CCCC4)C5)cc23)CC1 [Example 424, 5-(2-cyclopentyl-2,3-dihydro-1H-isoindol-5-yl)-3-[1-(ethylsulfonyl)-4-piperidinyl]-1H-indole-7-carboxamide] | –
≤ 10 µM | CCS(=O)(=O)N1CCC(c2c[nH]c3c(C(N)=O)cc(-c4ccc5c(c4)CN(CC4CC4)C5)cc23)CC1 [Example 425, 5-[2-(cyclopropylmethyl)-2,3-dihydro-1H-isoindol-5-yl]-3-[1-(ethylsulfonyl)-4-piperidinyl]-1H-indole-7-carboxamide] | –
≤ 10 µM | CCS(=O)(=O)N1CCC(c2c[nH]c3c(C(N)=O)cc(-c4ccc5c(c4)CN(CC(C)(C)C)C5)cc23)CC1 [Example 426, 5-[2-(2,2-dimethylpropyl)-2,3-dihydro-1H-isoindol-5-yl]-3-[1-(ethylsulfonyl)-4-piperidinyl]-1H-indole-7-carboxamide] | –
≤ 10 µM | CCS(=O)(=O)N1CCC(c2c[nH]c3c(C(N)=O)cc(-c4ccc5c(c4)CN(C(=O)NS(=O)(=O)c4ccccc4)C5)cc23)CC1 [Example 428, 3-[1-(ethylsulfonyl)-4-piperidinyl]-5-(2-{[(phenylsulfonyl)amino]carbonyl}-2,3-dihydro-1H-isoindol-5-yl)-1H-indole-7-carboxamide] | –
